Melting point data for 62 compounds are collected here from a melting point compilation (Tetko et al.; mined from patent text by program, amines drawn as free bases though some values may be those of a salt).

In general, melting point refers to the temperature of the solid-liquid transition. Regarding `Cc1oc(-c2ccc(C(F)(F)F)cc2)nc1CCOc1ccc(CN(O)C(N)=O)cc1`, the melting point lay in the range of 156 to 157 °C.

`Nc1sc2c(c1C(=O)c1ccccn1)CCN(Cc1ccccc1)C2` gave a melting point of 67 to 71 °C.

The compound `COc1ccc(-n2cnc3ccc(-c4nnc(CCc5cccc(C(F)(F)F)c5)o4)cc32)cc1` displayed a melting point of 159 to 160 °C. Consider `NCCNC(c1ccccc1)c1ccccc1`, for which the melting point fell in the range of 23 to 24 °C. On to `Cc1ccc(Cl)c(Nc2ccccc2-c2n[nH]c(=S)s2)c1Cl`, for which the melting point was 250 to 252 °C. The result for `FC(F)(F)c1cccc(N2CCN(c3ccc(I)nn3)CC2)c1` reads 145 °C; that for `COC(=O)c1ccc(F)cc1OC(=S)N(C)C`, 107 °C. As for `O=C1OC(CCOc2ccc3oc4ccccc4c3c2)C(O)=C1O` (configuration not stated), the figure is 191 to 192 °C; as for `O=C(CCOCc1ccc2ccccc2c1)c1ccccc1`, 56 to 57 °C; as for `O=C(NCC12CC3CC(CC(C3)C1)C2)c1cc(-c2cc(F)cnc2N2CCC(C(=O)O)CC2)ccc1Cl`, 130 to 135 °C. The result for `O=C(O)c1cnc2c3ccccc3c(O)cn2c1=O` reads 273 to 276 °C; that for `CCC(CS(=O)(=O)c1ccc(-c2ccc(OC)cc2)cc1)N(O)C=O` (configuration not stated), 199 to 200 °C. Take `N#CC(c1ccccc1)(c1ccccc1)C1CCCN(CCc2ccc(Cl)c(Cl)c2)C1` (configuration not stated): the melting point was 139 to 142 °C.

`CC(C)(C)C(=O)Nc1cccc(C(F)(F)F)c1` had a melting point of 107 °C. The compound `COc1cccc2c1OC(CN1CCC(NC(=O)Nc3ccccc3)CC1)CC2` (configuration not stated) registered a melting point of 163 °C. Consider `CCCCOCCOc1ccc(-c2ccc3c(c2)C=C(C(=O)Nc2ccc(CCCn4cnnc4)cc2)CCN3CCC)cc1`, for which the melting point was 191 to 194 °C. The compound `CC1Cc2c(Cl)ccc3c(=O)c(C(=O)O)cn1c23` (configuration not stated) registered a melting point of 288 to 290 °C.

`CC(C)(C)c1cc(C=Nn2ccnc2N2CCOCC2)cc(C(C)(C)C)c1O`: the melting point was 185 to 187 °C. The result for `CN1CCN(C)C1=Nc1ccccc1-c1ccccc1` reads 90 to 91 °C. As for `Fc1ccc(CN2CC=C(c3cc4ccccc4s3)CC2)cc1`, the figure is 142 to 144 °C. `CCCCc1nc2c(N)nc3cccnc3c2n1CCNC(=O)C(CC(C)C)NC(=O)OC(C)(C)C` (configuration not stated) showed a melting point of 184 to 185 °C. Consider `c1cc(COc2ccc(OCc3ccc4ccccc4n3)cc2)cc(OCc2nnn[nH]2)c1`, for which the melting point was 131 to 132 °C.

In turn, `CCOC(=O)C(=O)Nc1nc2c(s1)C(=O)c1ccccc1-2` had a melting point of 237 to 238 °C. `CC(C)(COC(=O)CCC(=O)O)Oc1ccc2c(c1)CCc1c-2ccc2c1CCC2(C)C` registered a melting point of 118 to 120 °C. In turn, `Cc1ccc2[nH]cc(C3=C(c4c[nH]c5ccc(C)cc45)C(=O)N(C)C3=O)c2c1` yielded a melting point of 270 to 275 °C.

Compound `CC(=O)NC(Cc1ccc(CC(=O)OC(C)(C)C)cc1)C(=O)OCc1ccccc1` (configuration not stated) gave a melting point of 170 to 172 °C. The result for `Oc1cnn(-c2ccc(Cl)cc2)c1` reads 127 to 128 °C; that for `CC(C)(O)c1cnn2c(-c3ccc(F)c(-c4cccnc4)c3)cnc2n1`, 199 to 200 °C. `CCc1ccc(S(=O)(=O)N(c2ccc(Cl)cc2[N+](=O)[O-])C(C)C)cc1` registered a melting point of 117 to 118 °C.

For the compound `CC(C)(C)COC(=O)c1cc(Cl)c(F)c(Cl)c1F`, the melting point was in the range of 38 to 42 °C. On to `CN(CCc1ccccc1)C(=O)Cn1cc(C=O)c2c(OCc3ccccc3)cccc21`, for which the melting point was in the range of 120 to 122 °C. As for `O=[N+]([O-])c1ccc(-n2nccn2)cc1`, the melting point was 183 to 184 °C.

As for `O=C(Nc1cccc2c1C(=O)N(CC(=O)N1CCN(c3ccncc3)CC1)C2=O)c1ccc(Cl)s1`, the melting point turned out to be 207 °C. Compound `CCCCCCCCCCCCCCOc1ccccc1C(=O)OC` displayed a melting point of 39 to 40 °C. In the case of `CCCC(O)(CCC)c1c2c(nn1C)N(c1c(C)cc(C)cc1Cl)CCC2`, the melting point fell in the range of 129 to 130 °C. Compound `O=C(Nc1ccc(Cl)cc1C(=NO)c1ccccc1)C(F)Cl` (configuration not stated) had a melting point of 110 to 129 °C. As for `Oc1ccc(-c2noc(C3(CSc4ccccc4)CC3)c2-c2ccccc2)cc1`, the figure is 180 to 181 °C. With `OC(CCN1CCC(c2ccc(F)cc2)CC1)c1ccc(-c2ccccc2)cc1` (configuration not stated), the melting point lay within 129 to 132 °C.

Turning to `O=C(c1ccc(Cl)cc1)N1N=C(C(F)(F)F)CC1(O)c1cc(F)ccc1F` (configuration not stated), the melting point lay within 110 to 113 °C. `Cc1ccc(NS(=O)(=O)c2ccc([N+](=O)[O-])cc2)cc1`: the melting point was in the range of 170 to 172 °C. The result for `Fc1ccccc1Cn1c(-c2ccc3c(c2)OCO3)nc2ccccc21` reads 149 to 150 °C; that for `OC(c1cc(F)cc(F)c1)c1cc(F)cc(F)c1`, 62 °C. Turning to `Oc1cccc2c1Oc1ccccc1C21CCN(CC=CCl)CC1`, the melting point was in the range of 153 to 155 °C. As for `COC(=O)C1=C(C=O)NC(C)=C(P2(=O)OCCCO2)C1c1ccccc1[N+](=O)[O-]` (configuration not stated), the melting point lay within 135 to 136 °C. As for `CNC(=C[N+](=O)[O-])NCCSCc1ncccc1OC`, the figure is 146 to 147 °C; as for `CC1=NC(NC(=O)Nc2cccc(C)c2)C(=O)N(CC(=O)N2CCC(N3CCCCC3)CC2)c2c(C)cccc21` (configuration not stated), 214 to 217 °C; as for `Cc1c(-c2ccc(OCc3ccccc3)cc2)n(Cc2ccc(OCCN3[C@H](C)CCC[C@@H]3C)cc2)c2ccc(OCc3ccccc3)cc12`, 106 to 107 °C.

As to `CC(=O)O[C@@]12C[C@@H](OC1=O)C(=O)[C@H](O[Si](C)(C)C(C)(C)C)C2`, the melting point fell in the range of 134 to 137 °C. On to `CC(CN1CCCC1)N1c2ccccc2Sc2ccc(C(N)=S)cc21` (racemic), for which the melting point turned out to be 150 °C.

`COC1=CC(=O)c2c(C)cc(C)cc2C1=O` showed a melting point of 146 to 148 °C.

`CC(C)(CNc1ccnc2cc(Cl)ccc12)NCc1cccc(Cl)c1`: the melting point was in the range of 125 to 126 °C.

Take `O=c1[nH]c2ncc(-c3ccc(O)cc3)nc2n1CC1CCCO1` (configuration not stated): the melting point fell in the range of 256 to 258 °C. The result for `O=C(Nc1nccs1)c1nc(-c2cccc3ccccc23)[nH]c1-c1ccc(Cl)cc1` reads 206 to 208 °C.

The compound `CCNC(=O)n1nc(Oc2ncc(C(F)(F)F)cc2Cl)cc1C` returned a melting point of 85 to 86 °C.

The compound `N#Cc1ccc(-c2ccc(-c3ccc(C#N)cn3)o2)cc1` came in with a melting point of 301 to 302 °C.

For the compound `O=C(O)c1ccc2c(c1)Sc1ccccc1CC2O` (configuration not stated), the melting point lay within 202 to 204 °C. As for `CCOC(=O)/C=C/c1ccc(Br)nc1`, the figure is 79 to 80 °C; as for `CCCCC[C@H]1CC[C@H](CCc2ccc(-c3ccc(Br)cc3F)cc2)CC1`, 57.5 °C.

The compound `C[C@H](CO)Nc1nc(SCc2ccccc2F)nc2[nH]c(=O)cnc12` registered a melting point of 203 to 205 °C. As for `COc1cc(N)c(Cl)cc1C(=O)NCC1CCN(CCCCCC(=O)c2c(C)oc3ccccc23)CC1`, the figure is 133 to 135 °C; as for `COc1ccc(-c2c(SCc3ccccc3)oc3cc(OCc4ccccc4)ccc3c2=O)cc1`, 131 °C. `CC(C)NCC(O)COc1ccc(OCCn2cccn2)cc1` (configuration not stated) displayed a melting point of 37 to 39 °C.
